This is an account of results in publication PMC10485906, “Development of a Dihydroquinoline–Pyrazoline GluN2C/2D-Selective Negative Allosteric Modulator of the N-Methyl-D-aspartate Receptor” (ACS Chemical Neuroscience, 2023).

Assay [1] deals with T1, GluA1 (Rattus norvegicus, UniProt P19490).
T1 construct: expressed in transfected cells; host or cells: Xenopus oocytes (cRNA injection)
Briefly: Off-target, oocytes, GluA1. Format: cell-based. To be noted: 1 µM compound; 100 µM glutamate. The method, then:
(§1) Analysis of Off-target Actions
(§2) Compound (S)-(-)-2i was tested at 1 µM for actions at glycine-activated GluN1/GluN3A (human GluN1-F484A,T518L/GluN3A referred to a GluN1-FA,TL/GluN3A) and rat GluN1-4a/GluN3B in the presence of 0.5 µM CGP-78608. cRNA injection ratios for GluN1/GluN3 were 1:2. Compound (S)-(-)- 2i was also tested for actions at AMPA (rat GluA1, rat GluA2, human GluA3-L531Y), kainate (rat GluK2), nicotinic acetylcholine (rat α7 and α4β2, cRNA ratio 1:1), GABAA (rat α1β2γ2S, cRNA ratio 1:1:1), GABAC (rat ρ1), glycine (rat α1), and purinergic (human P2X) receptors expressed in Xenopus oocytes. cRNA encoding the receptor subunits was synthesized from linear template cDNA using the mMessage mMachine kit (Ambion). Oocytes were injected with 1-5 ng cRNA in a 50 nL volume and incubated in Barth's solution at 15°C for 2-5 days prior to recording. GluK2-expressing oocyte were incubated in 1 mg/ml (10 µM) concanavalin-A for 10 min prior to recording. The cDNAs encoding GABAC and glycine subunits were provided by Dr. D. Weiss (University of Texas Health Science Center at San Antonio). cDNAs encoding nicotinic acetylcholine receptor subunits were provided by Drs. […]
(§3) GABA. […] Responses in presence of test compound were expressed as a percent of control. […]

Assay [2] addresses T2, GluA2-R607Q (Rattus norvegicus, UniProt P19491).
T2 construct: expressed in transfected cells; host or cells: Xenopus oocytes (cRNA injection)
Put plainly: Off-target, oocytes, GluA2. Format: cell-based. Conditions: 1 µM compound; 100 µM glutamate. The method, then:
as §1, §2, §3

Assay [3] has as its target T3, GluN1/GluN2A (Rattus norvegicus, UniProt Q00959).
T3 construct: expressed in transfected cells; host or cells: Xenopus laevis oocytes (cRNA injection)
Further details: method as in PMID 23909910. Conditions: reproduced for comparison; cited from earlier work.

T1 sequence (P19490 19-907): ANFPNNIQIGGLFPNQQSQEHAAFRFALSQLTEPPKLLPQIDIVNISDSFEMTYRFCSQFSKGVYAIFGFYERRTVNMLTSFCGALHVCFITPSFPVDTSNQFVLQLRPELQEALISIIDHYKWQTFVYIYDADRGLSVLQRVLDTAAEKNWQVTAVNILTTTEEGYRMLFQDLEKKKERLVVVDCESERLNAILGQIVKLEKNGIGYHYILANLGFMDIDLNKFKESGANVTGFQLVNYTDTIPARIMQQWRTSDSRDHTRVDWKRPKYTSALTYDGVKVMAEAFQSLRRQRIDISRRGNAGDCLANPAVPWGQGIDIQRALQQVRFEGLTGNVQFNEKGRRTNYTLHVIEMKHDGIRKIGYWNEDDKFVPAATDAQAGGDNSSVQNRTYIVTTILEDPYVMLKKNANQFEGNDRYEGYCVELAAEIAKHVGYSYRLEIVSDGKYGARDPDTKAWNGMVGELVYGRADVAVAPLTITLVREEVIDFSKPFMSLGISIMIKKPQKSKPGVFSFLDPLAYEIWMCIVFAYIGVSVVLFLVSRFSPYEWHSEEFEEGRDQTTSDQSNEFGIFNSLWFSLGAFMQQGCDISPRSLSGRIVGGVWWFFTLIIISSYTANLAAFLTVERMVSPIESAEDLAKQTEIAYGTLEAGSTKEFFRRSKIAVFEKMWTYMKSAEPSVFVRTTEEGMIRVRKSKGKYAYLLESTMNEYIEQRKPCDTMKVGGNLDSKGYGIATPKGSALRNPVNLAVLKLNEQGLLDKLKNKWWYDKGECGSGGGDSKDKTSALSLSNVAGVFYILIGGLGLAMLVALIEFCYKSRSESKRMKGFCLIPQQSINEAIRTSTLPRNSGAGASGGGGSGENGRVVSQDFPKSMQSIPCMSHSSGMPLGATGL
T3 sequence (Q00959 23-1464, other chains not shown): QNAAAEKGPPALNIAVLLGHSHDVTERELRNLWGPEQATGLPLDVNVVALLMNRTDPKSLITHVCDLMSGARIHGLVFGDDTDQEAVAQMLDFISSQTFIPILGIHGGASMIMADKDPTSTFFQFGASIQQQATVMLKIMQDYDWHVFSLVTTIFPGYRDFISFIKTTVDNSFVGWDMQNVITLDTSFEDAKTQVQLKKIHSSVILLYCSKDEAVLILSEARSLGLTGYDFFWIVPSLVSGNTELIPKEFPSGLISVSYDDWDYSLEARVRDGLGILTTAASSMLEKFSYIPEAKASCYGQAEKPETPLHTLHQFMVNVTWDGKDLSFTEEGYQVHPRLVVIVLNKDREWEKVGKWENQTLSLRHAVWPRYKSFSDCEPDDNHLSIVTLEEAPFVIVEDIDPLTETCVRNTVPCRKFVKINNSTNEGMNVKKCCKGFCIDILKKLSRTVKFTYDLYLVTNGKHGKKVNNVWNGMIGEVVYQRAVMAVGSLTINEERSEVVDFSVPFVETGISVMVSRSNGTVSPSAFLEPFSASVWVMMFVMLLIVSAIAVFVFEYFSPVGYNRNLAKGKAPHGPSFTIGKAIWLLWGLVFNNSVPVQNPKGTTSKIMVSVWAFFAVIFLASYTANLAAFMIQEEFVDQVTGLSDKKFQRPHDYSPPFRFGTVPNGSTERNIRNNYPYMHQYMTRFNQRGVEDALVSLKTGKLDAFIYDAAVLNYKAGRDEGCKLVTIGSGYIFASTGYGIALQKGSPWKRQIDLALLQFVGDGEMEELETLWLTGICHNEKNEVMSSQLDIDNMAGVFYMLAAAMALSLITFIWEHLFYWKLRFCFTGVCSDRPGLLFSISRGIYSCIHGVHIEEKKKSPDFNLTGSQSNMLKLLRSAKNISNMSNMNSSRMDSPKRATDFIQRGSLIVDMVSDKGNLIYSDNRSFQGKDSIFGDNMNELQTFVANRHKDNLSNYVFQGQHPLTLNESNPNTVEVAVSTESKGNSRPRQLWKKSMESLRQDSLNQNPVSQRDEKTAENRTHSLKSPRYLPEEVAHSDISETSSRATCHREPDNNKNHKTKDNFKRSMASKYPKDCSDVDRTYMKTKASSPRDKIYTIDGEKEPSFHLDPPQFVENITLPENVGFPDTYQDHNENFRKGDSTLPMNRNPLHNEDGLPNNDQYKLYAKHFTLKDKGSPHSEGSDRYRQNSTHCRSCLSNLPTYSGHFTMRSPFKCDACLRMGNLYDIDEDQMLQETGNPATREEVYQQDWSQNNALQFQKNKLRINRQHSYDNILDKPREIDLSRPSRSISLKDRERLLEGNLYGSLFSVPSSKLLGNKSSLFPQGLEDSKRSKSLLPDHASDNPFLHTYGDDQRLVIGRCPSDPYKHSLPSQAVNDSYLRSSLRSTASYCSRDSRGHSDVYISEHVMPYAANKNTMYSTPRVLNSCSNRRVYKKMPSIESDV
T2 sequence (P19491 22-883, stated change not applied): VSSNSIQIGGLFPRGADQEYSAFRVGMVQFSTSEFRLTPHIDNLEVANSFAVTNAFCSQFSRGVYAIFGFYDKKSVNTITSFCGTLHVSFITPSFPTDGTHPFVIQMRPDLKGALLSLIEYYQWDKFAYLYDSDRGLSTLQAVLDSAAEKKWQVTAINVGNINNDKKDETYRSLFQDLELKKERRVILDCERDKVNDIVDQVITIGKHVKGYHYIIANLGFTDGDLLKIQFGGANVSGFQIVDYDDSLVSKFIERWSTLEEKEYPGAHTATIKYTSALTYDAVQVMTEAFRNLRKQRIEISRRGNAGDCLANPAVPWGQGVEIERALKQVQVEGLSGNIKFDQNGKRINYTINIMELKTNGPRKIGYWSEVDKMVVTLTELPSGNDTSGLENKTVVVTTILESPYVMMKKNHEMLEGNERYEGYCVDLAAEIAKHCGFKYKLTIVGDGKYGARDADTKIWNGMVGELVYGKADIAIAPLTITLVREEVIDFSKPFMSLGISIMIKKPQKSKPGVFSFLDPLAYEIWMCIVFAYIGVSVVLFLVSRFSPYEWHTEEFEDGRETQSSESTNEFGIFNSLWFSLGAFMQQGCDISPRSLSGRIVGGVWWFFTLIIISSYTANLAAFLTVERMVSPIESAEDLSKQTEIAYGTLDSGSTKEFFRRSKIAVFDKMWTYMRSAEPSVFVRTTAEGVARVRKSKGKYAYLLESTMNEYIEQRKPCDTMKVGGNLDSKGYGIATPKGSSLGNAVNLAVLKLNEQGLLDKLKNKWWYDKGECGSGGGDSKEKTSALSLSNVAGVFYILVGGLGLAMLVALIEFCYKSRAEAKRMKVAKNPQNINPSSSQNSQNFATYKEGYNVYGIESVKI

Regarding `O=C(O)CC(F)(F)C(=O)N1N=C(c2c(-c3ccc(Cl)cc3)c3ccccc3[nH]c2=O)C[C@H]1c1ccc(Cl)cc1` [(S)-(−)-2i], the “% control GluA1” value in assay [1] came to 100 ± 2.0%. For the same compound, in assay [2], the “% control GluA2-R607Q” value was determined as 98 ± 0.85%. Consider `O=C(O)CCC(=O)N1N=C(c2c(-c3ccc(Cl)cc3)c3ccccc3[nH]c2=O)CC1c1ccc(Cl)cc1` (stereo not drawn) [2a], for which the “I 30 μM / I control GluN2A” value in assay [3] was 37 ± 4.6 (2,10) %.
